Assay results from EP2265631B1, “NOVEL ANTIMICROBIAL PEPTIDES AND THEIR APPLICATION” (Ustav Organicke Chemie a Biochemie Akademie Ved Ceske …, priority 2008, dated 2009).

Legend:
Escherichia coli = test: Determination of antimicrobial activity (MIC, bacterial growth in LB broth); type: cell-based; settings: minimum inhibitory concentration (MIC) per method, 37°C, 20 h, read-out: Antimicrobial activity IC50 [µM] E. c.
Procedure: (§1) Antimicrobial activity was determined as a quantitative minimum inhibitory concentration (MIC) by observing bacterial growth in the presence of different concentrations of tested peptides. Mid-exponential phase bacteria were added to the solutions of the tested antimicrobial peptide at different concentrations (0.5 to 100 µM) in LB broth in multi-well plates. The plates were incubated at 37°C for 20 h while being continuously shaken in a Bioscreen C instrument (Finland). The absorbance was measured at 540 nm every 15 min and each peptide was tested at least 3 times in duplicate. 1.2.10^3 - 7.5.10^3 CFU of bacteria was routinely used in the experiments. Tetracycline in a concentration range of 0.1 - 50 µM was tested as a standard.

Staphylococcus aureus = test: as above; type: cell-based; settings: minimum inhibitory concentration (MIC) per method, 37°C, 20 h, read-out: Antimicrobial activity IC50 [µM] S.a.
Procedure: as §1

Bacilus subtilis = test: as above; type: cell-based; settings: minimum inhibitory concentration (MIC) per method, 37°C, 20 h, read-out: Antimicrobial activity IC50 [µM] B.s.
Procedure: as §1

Pseudomonnas aeruginosa = test: as above; type: cell-based; settings: minimum inhibitory concentration (MIC) per method, 37°C, 20 h, read-out: Antimicrobial activity IC50 [µM] P.a.
Procedure: as §1

[1] = tested on: rat pheochromocytoma PC12; test: Cytostatic effect on cancer cells (e.g. MTT test); type: cell-based; settings: 24-72 h incubation, 50% decrease in cell viability
Procedure: (§2) Tumor cells in suspension or adherent cells were incubated under standard conditions in appropriate culture media for 24-72 h with the peptides in 2-40 micromolar concentration. After this time, the number of living cells was determined using routine tests, e.g. MTT test. The IC50 was determined as concentration of peptides, which caused 50% decrease in cell viability in comparison to controls (no peptide present). In preliminary tests mouse lymphocytic leukemia L1210 (CCL 219), CCRF-CEM T lymphoblastoid (human acute lymphoblastic leukemia, CCL 119), human promyelocytic leukemia HL-60 (CCL 240), human cervix carcinoma HeLa S3, rat pheochromocytoma PC12, human colon adenocarcinoma SW480 (CCL-228), and normal rat epithelial cells (IEC-6, CRL-1592) from ATCC (Manassas, VA, USA), were used. […] Table 4. Cytostatic effect of selected peptides on cancer cells

[2] = tested on: human cervix carcinoma HeLa S3; test: Cytostatic effect on cancer cells (e.g. MTT test); type: cell-based; settings: 24-72 h incubation, 50% decrease in cell viability; read-out: IC50 [µM] HeLaS3
Procedure: as §2

[3] = tested on: human colon adenocarcinoma SW480; test: Cytostatic effect on cancer cells (e.g. MTT test); type: cell-based; settings: 24-72 h incubation, 50% decrease in cell viability
Procedure: as §2

[4] = tested on: mouse lymphocytic leukemia L1210; test: Cytostatic effect on cancer cells (e.g. MTT test); type: cell-based; settings: 24-72 h incubation, 50% decrease in cell viability
Procedure: as §2

[5] = tested on: human promyelocytic leukemia HL-60; test: Cytostatic effect on cancer cells (e.g. MTT test); type: cell-based; settings: 24-72 h incubation, 50% decrease in cell viability
Procedure: as §2

rat red blood cells = test: Determination of hemolytic activity; type: cell-based
Procedure: The peptides in the concentration (1-200 µM) were incubated with rat red blood cells (5%) for 1 h at 37°C in a physiological solution at a final volume of 0.2 ml. The samples were then centrifuged for 5 min at 250 g, and the absorbance of the supernatant was determined at 540 nm. Supernatants of red blood cells suspended in physiological solution and in 0.2% TRITON X100 in physiological solution served as controls for zero hemolysis (blank) and 100% hemolysis, respectively. Table 3. Antimicrobial and hemolytic activity of melectin (I) and its synthetic analogs of formulas II/1 to II/18

[6] = tested on: CCRF-CEM T lymphoblastoid; test: Cytostatic effect on cancer cells (e.g. MTT test); type: cell-based, human; settings: 24-72 h incubation, 50% decrease in cell viability
Procedure: as §2

bacteria = test: Antimicrobial effect, general statement; type: cell-based
Procedure: as §1

Tumor cells = test: Cytostatic effect on cancer cells, summary over the cell panel; type: cell-based; settings: range over the tumor cell lines, preliminary tests
Procedure: as §2

CC[C@H](C)[C@H](NC(=O)[C@H](CO)NC(=O)[C@H](CC(C)C)NC(=O)[C@H](Cc1ccccc1)NC(=O)CN)C(=O)N[C@@H](CC(C)C)C(=O)N[C@@H](CCCCN)C(=O)N[C@@H](CCCCN)C(=O)N[C@H](C(=O)N[C@@H](CC(C)C)C(=O)N1CCC[C@H]1C(=O)N[C@@H](CCCCN)C(=O)N[C@H](C(=O)N[C@@H](CCSC)C(=O)N[C@@H](C)C(=O)N[C@@H](Cc1cnc[nH]1)C(=O)N[C@@H](CCSC)C(=O)N[C@@H](CCCCN)C(N)=O)C(C)C)C(C)C [Peptide I, H-Gly-Phe-Leu-Ser-Ile-Leu-Lys-Lys-Val-Leu-Pro-Lys-Val-Met-Ala-His-Met-Lys-NH2]
IC50 (Escherichia coli): 2 µM | IC50 (Staphylococcus aureus): 6.8 µM | IC50 (Bacilus subtilis): 0.8 µM | IC50 (Pseudomonnas aeruginosa): 18.5 µM | IC50 [1]: 10 µM | IC50 [2]: 18.1 µM | IC50 [3]: 25 µM | IC50 [4]: > 10 µM | IC50 [5]: > 10 µM | hemolytic activity (in words) (rat red blood cells): low hemolytic activity | Hemolytic activity (rat red blood cells; rat red blood cells (5%), 1 h at 37°C, peptides 1-200 µM): > 100 µM | IC50 [6]: > 10 µM | antimicrobial effect (in words) (bacteria): strong antimicrobial effect | IC50 (Tumor cells): 4 to 30 µM
